Experimental findings from ChEMBL document CHEMBL1124323, “Phenolic metabolites of clomiphene: [(E,Z)-2-[4-(1,2-diphenyl-2-chlorovinyl)phenoxy]ethyl]diethylamine. Preparation, electrophilicity, and effects in MCF 7 breast cancer cells” (J Med Chem, 1989) are described below.

The structures appear in SMILES notation.

For test [1], the system named is MCF7S. The experiment in a line: cells. The settings on record: Homo sapiens.
In test [2] the target is T1, Estrogen receptor (Homo sapiens, UniProt Q92731+P03372). The experiment in a line: Displacement of [3H]-estradiol from estrogen receptor (ER). Format: protein assay. On the technique in general: Displacement assays read how much labelled ligand stays bound in the presence of the test substance.
In test [3] the target is T2, Anti-estrogen binding site (AEBS) (Homo sapiens, UniProt Q15125+Q9UBM7). Nature of the test: Relative binding affinity for antiestrogen binding site compared to tamoxifen. It is filed as protein-complex assay.
T2 sequence (Q15125 whole entry): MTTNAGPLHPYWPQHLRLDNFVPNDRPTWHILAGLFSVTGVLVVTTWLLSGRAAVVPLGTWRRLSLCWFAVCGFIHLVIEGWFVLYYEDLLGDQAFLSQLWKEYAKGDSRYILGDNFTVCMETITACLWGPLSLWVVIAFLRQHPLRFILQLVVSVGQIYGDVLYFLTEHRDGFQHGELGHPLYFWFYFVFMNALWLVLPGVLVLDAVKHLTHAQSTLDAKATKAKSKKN
T2 sequence (Q9UBM7 whole entry): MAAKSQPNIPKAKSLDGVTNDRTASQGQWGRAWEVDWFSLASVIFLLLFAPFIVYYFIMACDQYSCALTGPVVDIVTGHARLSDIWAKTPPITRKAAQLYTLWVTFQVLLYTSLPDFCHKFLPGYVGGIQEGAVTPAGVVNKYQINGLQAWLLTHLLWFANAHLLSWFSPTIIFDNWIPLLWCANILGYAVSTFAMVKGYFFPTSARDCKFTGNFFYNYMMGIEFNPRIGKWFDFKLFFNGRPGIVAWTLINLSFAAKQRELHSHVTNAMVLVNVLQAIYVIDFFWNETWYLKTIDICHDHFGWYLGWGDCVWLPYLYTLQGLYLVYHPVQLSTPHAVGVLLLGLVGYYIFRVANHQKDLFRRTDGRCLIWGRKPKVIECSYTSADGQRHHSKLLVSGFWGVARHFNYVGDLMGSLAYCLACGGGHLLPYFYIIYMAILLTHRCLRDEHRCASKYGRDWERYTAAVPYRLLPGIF
In test [4] the target is T2, Anti-estrogen binding site (AEBS). Nature of the test: Displacement of [3H]tamoxifen from antiestrogen binding site (AEBS). It is filed as protein-complex assay.
In test [5] the target is T1, Estrogen receptor. Nature of the test: Relative binding affinity for estrogen receptor compared to estradiol. Format: protein assay.
Test [6] deals with MCF7S. Nature of the test: Inhibition of MCF-7 cell proliferation at 5 uM. Format: functional. Particulars: Homo sapiens.

By inhibition is commonly meant the percentage by which the read-out fell short of the control. On to `CCN(CC)CCOc1ccc(C(=C(Cl)c2ccccc2)c2ccccc2)cc1` [CLOMIPHENE], for which the inhibition at 5 µM in the test on MCF7S [1] is 80%.
The same measure, in the same setting: in the case of `CCN(CC)CCOc1ccc(/C(=C(/Cl)c2ccc(O)cc2)c2ccccc2)cc1` it was 57%.
A word on the IC50: it is the concentration needed to halve the response being measured. Read a high IC50 as lower potency. `CCN(CC)CCOc1ccc(/C(=C(/Cl)c2ccccc2)c2ccc(O)c(OC)c2)cc1` [3'-METHOXY-4'HYDROXYCLOMIPHENE]: the IC50 was 780 nM at Estrogen receptor [2] and 22 nM in test [4]. Besides, the Ratio was determined as 55 in test [3] and 0.4 at Estrogen receptor [5]. In the test on MCF7S [1], testing at 5 µM gave an inhibition of 76%.
As for `CCN(CC)CCOc1ccc(/C(=C(/Cl)c2ccc(O)c(OC)c2)c2ccccc2)cc1`, the IC50 came out at 3000 nM at Estrogen receptor [2] and 32 nM in test [4]. Moreover, the Ratio in test [3] was 38. In the test on MCF7S [6], this molecule had an inhibition at 5 µM of 49%.
